Experimental data from patent publication US12558362B2, “Use of cannabidiol in the treatment of seizures associated with rett syndrome” (JAZZ PHARMACEUTICALS RESEARCH UK LIMITED, priority 2020, dated 2026).
“Also recorded” adds a separate entry of the source.

Columns and labels:
[1] = tested on: mouse model of Rett syndrome; conditions: cited from earlier work
[2] = tested on: patients with Dravet and Lennox-Gastaut syndrome; conditions: cited from earlier work
[3] = tested on: patients diagnosed with Rett syndrome; assay: Open label, expanded-access program of botanically derived purified CBD: seizure frequency recorded in caregiver diaries relative to baseline; type: in vivo, human; parameters: Reduction in tonic seizures over the treatment period / Reduction in focal seizures with impairment over the treatment period / Reduction in absence seizures over the treatment period: concentration or dose not given beside the values; Seizure frequency, tonic / Seizure frequency, tonic-clonic / Seizure frequency, absence / Seizure frequency, focal with impairment: unit not given here; conditions: for Seizure frequency, focal with impairment: baseline 3.2
Procedure: Subjects were required to be on one or more AEDs at stable doses for a minimum of two weeks prior to baseline and to have stable vagus nerve stimulation (VNS) settings and ketogenic diet ratios for a minimum of four weeks prior to baseline.
Patients were administered botanically derived purified CBD in a 100 mg/mL sesame oil-based solution which was titrated to an initial dose of between 5 and 25 milligrams per kilogram per day (mg/kg/day) in two divided doses. Doses were then increased weekly by 5 mg/kg/day to a goal of 25 mg/kg/day where required.
A maximum dose of 50 mg/kg/day could be utilised for patients who were tolerating the medication but had not achieved seizure control; these patients had further weekly titration by 5 mg/kg/day.
There were three patients in this study, and each received CBD for various durations of time. Modifications were made to concomitant AEDs as per clinical indication.
Seizure frequency, intensity, and duration were recorded by caregivers in a diary during a baseline period of at least 28 days. Changes in seizure frequency relative to baseline were calculated after at least 2 weeks and at defined timepoints of treatment.
Patients may be defined as responders if they had more than 50% reduction in seizure frequency compared to baseline. The percent change in seizure frequency was calculated as follows: […]
The percent change of seizure frequency may be calculated for any time interval where seizure number has been recorded. For the purpose of this example the percent change of seizure frequency for the end of the treatment period was calculated as follows:
[formula] Results Patient Description

[4] = Patient 2, treated for 84 weeks
[5] = printed Patient 2 (follows Table 2C of Patient 3), treated for 36 weeks

C=C(C)[C@@H]1CCC(C)=C[C@H]1c1c(O)cc(CCC)cc1O [CBDV, cannabidivarin]
Behavioural alterations [1]: rescue the behavioural alterations

C=C(C)[C@@H]1CCC(C)=C[C@H]1c1c(O)cc(CCCCC)cc1O [CBD, cannabidiol]
Efficacy in randomized control trials [2]: showed efficacy
Seizure frequency, tonic-clonic ([3]; Patient 1, 2 weeks, CBD 5.0 mg/kg/day, baseline 10.0): 26.0
Seizure frequency, tonic ([3]; Patient 1, 2 weeks, CBD 5.0 mg/kg/day, baseline 22.4): 22.0
Seizure frequency, tonic-clonic ([3]; Patient 1, 4 weeks, CBD 10.0 mg/kg/day, baseline 10.0): 21.4
Seizure frequency, tonic ([3]; Patient 1, 4 weeks, CBD 10.0 mg/kg/day, baseline 22.4): 38.0
Seizure frequency, tonic-clonic ([3]; Patient 1, 8 weeks, CBD 20.0 mg/kg/day, baseline 10.0): 14.0
Seizure frequency, tonic ([3]; Patient 1, 8 weeks, CBD 20.0 mg/kg/day, baseline 22.4): 28.0
Seizure frequency, tonic-clonic ([3]; Patient 1, 12 weeks, CBD 25.0 mg/kg/day, baseline 10.0): 12.0
Seizure frequency, tonic ([3]; Patient 1, 12 weeks, CBD 25.0 mg/kg/day, baseline 22.4): 28.0
Seizure frequency, tonic-clonic ([3]; Patient 1, 16 weeks, CBD 15.0 mg/kg/day, baseline 10.0): 22.0
Seizure frequency, tonic ([3]; Patient 1, 16 weeks, CBD 15.0 mg/kg/day, baseline 22.4): 14.0
Seizure frequency, tonic-clonic ([3]; Patient 1, 24 weeks, CBD 15.0 mg/kg/day, baseline 10.0): 12.0
Seizure frequency, tonic ([3]; Patient 1, 24 weeks, CBD 15.0 mg/kg/day, baseline 22.4): 8.0
Seizure frequency, tonic-clonic ([3]; Patient 1, 36 weeks, CBD 15.0 mg/kg/day, baseline 10.0): 20.0
Seizure frequency, tonic ([3]; Patient 1, 36 weeks, CBD 15.0 mg/kg/day, baseline 22.4): 20.0
Reduction in tonic seizures over the treatment period ([3]; Patient 1, treated for 36 weeks): 10.7%
Seizure frequency, absence ([3]; Patient 2, 8 weeks, CBD 20.0 mg/kg/day, baseline 0): 1.0
Seizure frequency, focal with impairment ([3]; Patient 2, 8 weeks, CBD 20.0 mg/kg/day): 0
Seizure frequency, tonic ([3]; Patient 2, 8 weeks, CBD 20.0 mg/kg/day, baseline 5.6): 3.0
Seizure frequency, absence ([3]; Patient 2, 12 weeks, CBD 20.0 mg/kg/day, baseline 0): 0
Seizure frequency, focal with impairment ([3]; Patient 2, 12 weeks, CBD 20.0 mg/kg/day): 0
Seizure frequency, tonic ([3]; Patient 2, 12 weeks, CBD 20.0 mg/kg/day, baseline 5.6): 1.6
Seizure frequency, absence ([3]; Patient 2, 16 weeks, CBD 20.0 mg/kg/day, baseline 0): 0
Seizure frequency, focal with impairment ([3]; Patient 2, 16 weeks, CBD 20.0 mg/kg/day): 0
Seizure frequency, tonic ([3]; Patient 2, 16 weeks, CBD 20.0 mg/kg/day, baseline 5.6): 2.0
Seizure frequency, absence ([3]; Patient 2, 24 weeks, CBD 20.0 mg/kg/day, baseline 0): 0.8
Seizure frequency, focal with impairment ([3]; Patient 2, 24 weeks, CBD 20.0 mg/kg/day): 0
Seizure frequency, tonic ([3]; Patient 2, 24 weeks, CBD 20.0 mg/kg/day, baseline 5.6): 0.4
Seizure frequency, absence ([3]; Patient 2, 36 weeks, CBD 20.0 mg/kg/day, baseline 0): 0.4
Seizure frequency, focal with impairment ([3]; Patient 2, 36 weeks, CBD 20.0 mg/kg/day): 0
Seizure frequency, tonic ([3]; Patient 2, 36 weeks, CBD 20.0 mg/kg/day, baseline 5.6): 0.4
Seizure frequency, absence ([3]; Patient 2, 48 weeks, CBD 20.0 mg/kg/day, baseline 0): 0
Seizure frequency, focal with impairment ([3]; Patient 2, 48 weeks, CBD 20.0 mg/kg/day): 0
Seizure frequency, tonic ([3]; Patient 2, 48 weeks, CBD 20.0 mg/kg/day, baseline 5.6): 0.8
Seizure frequency, absence ([3]; Patient 2, 60 weeks, CBD 20.0 mg/kg/day, baseline 0): 0
Seizure frequency, focal with impairment ([3]; Patient 2, 60 weeks, CBD 20.0 mg/kg/day): 0
Seizure frequency, tonic ([3]; Patient 2, 60 weeks, CBD 20.0 mg/kg/day, baseline 5.6): 1.4
Seizure frequency, absence ([3]; Patient 2, 72 weeks, CBD 21.3 mg/kg/day, baseline 0): 0.4
Seizure frequency, focal with impairment ([3]; Patient 2, 72 weeks, CBD 21.3 mg/kg/day): 0
Seizure frequency, tonic ([3]; Patient 2, 72 weeks, CBD 21.3 mg/kg/day, baseline 5.6): 0.4
Seizure frequency, absence ([3]; Patient 2, 84 weeks, CBD 20.0 mg/kg/day, baseline 0): 0.4
Seizure frequency, focal with impairment ([3]; Patient 2, 84 weeks, CBD 20.0 mg/kg/day): 0
Seizure frequency, tonic ([3]; Patient 2, 84 weeks, CBD 20.0 mg/kg/day, baseline 5.6): 0.4
Reduction in focal seizures with impairment over the treatment period [3, 4]: 100%
Reduction in tonic seizures over the treatment period [3, 4]: 92.9%
Seizure frequency, tonic-clonic ([3]; Patient 3, 4 weeks, CBD 25.0 mg/kg/day, baseline 4.0): 4.0
Seizure frequency, absence ([3]; Patient 3, 4 weeks, CBD 25.0 mg/kg/day, baseline 8.0): 1.0
Seizure frequency, tonic ([3]; Patient 3, 4 weeks, CBD 25.0 mg/kg/day, baseline 16.0): 2.0
Seizure frequency, tonic-clonic ([3]; Patient 3, 12 weeks, CBD 25.0 mg/kg/day, baseline 4.0): 4.0
Seizure frequency, absence ([3]; Patient 3, 12 weeks, CBD 25.0 mg/kg/day, baseline 8.0): 0
Seizure frequency, tonic ([3]; Patient 3, 12 weeks, CBD 25.0 mg/kg/day, baseline 16.0): 1.0
Seizure frequency, tonic-clonic ([3]; Patient 3, 16 weeks, CBD 25.0 mg/kg/day, baseline 4.0): 6.0
Seizure frequency, absence ([3]; Patient 3, 16 weeks, CBD 25.0 mg/kg/day, baseline 8.0): 0
Seizure frequency, tonic ([3]; Patient 3, 16 weeks, CBD 25.0 mg/kg/day, baseline 16.0): 4.0
Seizure frequency, tonic-clonic ([3]; Patient 3, 24 weeks, CBD 25.0 mg/kg/day, baseline 4.0): 8.0
Seizure frequency, absence ([3]; Patient 3, 24 weeks, CBD 25.0 mg/kg/day, baseline 8.0): 4.0
Seizure frequency, tonic ([3]; Patient 3, 24 weeks, CBD 25.0 mg/kg/day, baseline 16.0): 0
Seizure frequency, tonic-clonic ([3]; Patient 3, 36 weeks, CBD 25.0 mg/kg/day, baseline 4.0): 6.0
Seizure frequency, absence ([3]; Patient 3, 36 weeks, CBD 25.0 mg/kg/day, baseline 8.0): 1.0
Seizure frequency, tonic ([3]; Patient 3, 36 weeks, CBD 25.0 mg/kg/day, baseline 16.0): 4.0
Reductions in seizures over the period of treatment, overall ([3]; all three patients, range over patients and seizure types): 10.7-100.0%
Decrease of seizure frequency rates: tonic, tonic-clonic, absence and focal seizures with impairment ([3]; conclusion, all patients): 11-100.0%
Seizure freedom, focal seizures with impairment ([3]; one patient (patient 2)): became seizure free of focal seizures with impairment
Reduction in absence seizures over the treatment period [3, 5]: 87.5%
Reduction in tonic seizures over the treatment period [3, 5]: 75%
Reduction in tonic seizures, all three patients ([3]; range over the three patients): 11-93%
Reduction of seizures associated with Rett syndrome ([3]; summary statement of the program): significantly reduce the number of seizures; also recorded: significant reduction in specific seizure types
Effect on frequency of tonic, absence and focal seizures with impairment ([3]; three patients with Rett syndrome): effective in reducing the frequency
